Experimental data reported in article PMC10895652, “Preclinical Evaluation of Novel Positron Emission Tomography (PET) Probes for Imaging Leucine-Rich Repeat Kinase 2 (LRRK2)” (Journal of Medicinal Chemistry, 2024).

Tests used:
[1] = molecular target: T1, LRRK2 (Mus musculus, UniProt Q5S006); test: PET imaging in LPS-injected neuroinflammatory mouse model; type: in vivo; conditions: brain, LPS-injected mice versus sham group (PBS)
T1 construct: from tissue; host or cells: brain of living CD-1 mice, i.c.v; LPS or saline
Protocol: The CD-1 mice were anesthetized and secured in a stereotaxic frame. The skull was exposed and stereotaxic coordinates (−2.6 mm dorsal/ventral, −1.5 mm lateral, and −0.2 mm anterior/posterior from bregma) according to the procedure by Haley and McCormick.[43] The i.c.v. injections of 10 μg (in 2 μL of saline) of LPS and saline (control group) injections were administered using a microsyringe. The behavior of each mouse was characterized and recorded in the form of scores, including appearance, activity, level of consciousness, eyes, respiration rate, and respiration quality. Scores were determined by summing up the individual scores (Figure S10).
The general procedure for PET studies was described previously[35],[41] with minor modification in this work. Briefly, PET scans were carried out by a Genisys 4 PET scanner (Sofie Biosciences, Culver, CA). Mice were kept under anesthesia using 1–2% (v/v) isoflurane during the scan. The radiotracer (ca. 45 μCi/100 μL) was injected into the tail vein via a preinstalled catheter. A dynamic scan in 3D list mode was acquired for 60 min. The PET dynamic images were reconstructed using G4 software (Analysis Tools and System Setup/Diagnostics Tool, Sofie Biosciences). The radioactivity was decay-corrected and expressed as the standardized uptake value: SUV = (radioactivity per mL tissue/injected radioactivity) × body weight.

[2] = Radiometabolic analysis in mouse brain homogenate; type: in vivo; conditions: 30 min post tracer administration
Protocol: With the established good BBB penetration ability of [^18F]4, we then performed ex vivo biodistribution studies to obtain more in-depth information on the whole-body distribution and clearance of [^18F]4. Mice were sorted into four groups based on their survival intervals (5, 15, 30, and 60 min) after intravenous administration of [^18F]4. […] To investigate the in vivo stability of [^18F]4 in mouse brains, we conducted a radiometabolic analysis in mouse brain homogenate at 30 min post tracer administration.

T1 sequence (Q5S006 whole entry): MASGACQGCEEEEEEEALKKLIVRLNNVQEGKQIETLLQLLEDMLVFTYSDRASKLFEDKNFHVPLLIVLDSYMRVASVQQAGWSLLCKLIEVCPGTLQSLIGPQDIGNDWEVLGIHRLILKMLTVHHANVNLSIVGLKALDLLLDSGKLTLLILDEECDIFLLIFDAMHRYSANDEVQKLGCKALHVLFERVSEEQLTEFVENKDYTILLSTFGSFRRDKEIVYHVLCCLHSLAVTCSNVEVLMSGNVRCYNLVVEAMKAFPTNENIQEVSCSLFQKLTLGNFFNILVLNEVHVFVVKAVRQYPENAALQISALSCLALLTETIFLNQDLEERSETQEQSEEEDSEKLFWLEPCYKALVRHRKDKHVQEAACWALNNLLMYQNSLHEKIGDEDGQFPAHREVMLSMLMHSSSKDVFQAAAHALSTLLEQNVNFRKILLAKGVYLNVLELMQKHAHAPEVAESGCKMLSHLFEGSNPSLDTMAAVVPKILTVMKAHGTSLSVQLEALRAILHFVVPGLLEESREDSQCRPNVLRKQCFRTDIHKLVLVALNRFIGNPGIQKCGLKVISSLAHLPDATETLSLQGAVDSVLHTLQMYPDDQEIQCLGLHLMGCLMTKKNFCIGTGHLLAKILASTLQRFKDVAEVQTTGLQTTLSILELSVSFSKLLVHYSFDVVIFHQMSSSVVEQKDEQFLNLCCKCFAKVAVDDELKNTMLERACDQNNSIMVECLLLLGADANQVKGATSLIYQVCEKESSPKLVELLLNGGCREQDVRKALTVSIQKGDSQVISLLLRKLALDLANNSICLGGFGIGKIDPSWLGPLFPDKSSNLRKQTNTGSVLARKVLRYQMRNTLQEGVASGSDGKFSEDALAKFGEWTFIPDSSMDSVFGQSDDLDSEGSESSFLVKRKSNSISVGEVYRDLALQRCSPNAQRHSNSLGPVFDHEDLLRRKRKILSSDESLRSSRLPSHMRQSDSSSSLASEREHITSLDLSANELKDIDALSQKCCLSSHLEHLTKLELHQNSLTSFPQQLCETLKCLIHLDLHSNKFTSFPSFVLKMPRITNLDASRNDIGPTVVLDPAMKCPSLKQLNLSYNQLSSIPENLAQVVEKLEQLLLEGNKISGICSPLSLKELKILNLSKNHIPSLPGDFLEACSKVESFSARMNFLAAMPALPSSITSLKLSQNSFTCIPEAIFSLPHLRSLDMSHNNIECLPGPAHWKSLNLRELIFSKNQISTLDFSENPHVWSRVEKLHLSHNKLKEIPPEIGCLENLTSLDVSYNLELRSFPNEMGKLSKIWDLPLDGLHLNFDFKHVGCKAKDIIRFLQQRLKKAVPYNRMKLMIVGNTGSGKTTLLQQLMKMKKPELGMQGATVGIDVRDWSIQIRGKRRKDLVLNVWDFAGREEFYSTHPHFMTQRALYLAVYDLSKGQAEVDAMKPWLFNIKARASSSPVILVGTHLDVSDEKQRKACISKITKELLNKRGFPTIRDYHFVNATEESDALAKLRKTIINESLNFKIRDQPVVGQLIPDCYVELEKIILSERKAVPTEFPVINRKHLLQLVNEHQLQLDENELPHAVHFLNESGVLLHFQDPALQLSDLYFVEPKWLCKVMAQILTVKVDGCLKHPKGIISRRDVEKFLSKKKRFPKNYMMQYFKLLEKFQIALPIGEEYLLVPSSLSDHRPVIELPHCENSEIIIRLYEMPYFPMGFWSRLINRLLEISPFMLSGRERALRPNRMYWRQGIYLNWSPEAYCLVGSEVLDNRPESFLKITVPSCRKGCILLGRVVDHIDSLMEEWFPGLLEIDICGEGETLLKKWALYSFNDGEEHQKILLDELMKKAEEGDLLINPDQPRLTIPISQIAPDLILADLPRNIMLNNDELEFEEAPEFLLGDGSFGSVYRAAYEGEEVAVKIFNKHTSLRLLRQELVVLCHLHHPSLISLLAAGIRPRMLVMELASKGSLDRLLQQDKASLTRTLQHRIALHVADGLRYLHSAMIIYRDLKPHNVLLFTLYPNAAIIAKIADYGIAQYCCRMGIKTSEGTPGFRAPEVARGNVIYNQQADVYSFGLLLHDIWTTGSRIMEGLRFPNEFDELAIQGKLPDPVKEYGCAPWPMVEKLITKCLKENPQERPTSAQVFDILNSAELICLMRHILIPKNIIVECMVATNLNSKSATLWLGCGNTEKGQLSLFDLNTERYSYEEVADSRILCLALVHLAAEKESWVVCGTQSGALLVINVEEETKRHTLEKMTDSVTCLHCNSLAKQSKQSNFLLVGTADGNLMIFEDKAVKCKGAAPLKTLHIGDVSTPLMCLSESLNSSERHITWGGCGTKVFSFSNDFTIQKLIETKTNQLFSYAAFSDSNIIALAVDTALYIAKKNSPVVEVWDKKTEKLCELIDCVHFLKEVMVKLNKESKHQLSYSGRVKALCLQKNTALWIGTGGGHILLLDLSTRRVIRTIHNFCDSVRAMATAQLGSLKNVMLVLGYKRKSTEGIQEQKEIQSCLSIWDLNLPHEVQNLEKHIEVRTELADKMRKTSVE

- increase of radioactivity based on the AUCs [1]: 28%
- parent fraction in mouse brain homogenate [2]: 69%
SMILES: N#Cc1cccc(-c2c[nH]c3ncnc(N4CCOCC4)c23)c1[18F] [[^18F]4]
